The values that follow are results of earlier work, collected in patent publication US20060127459A1, “Urogenital infection inhibition” (priority 2004, published 2006).

The subject of this data set is pathogen adherence to epithelium cells. As to conditions: positive control, shown in U.S. patent application Ser. No. 10/401,522.

For Hyaluronic acid (HLA) potassium salt, the “pathogen adherence to epithelium cells” value is given as “inhibit pathogen adherence”.
